From PMC9911596 (Nature Communications, 2023)
Numbering of substitutions follows the chain as printed.

What was measured:
[1] = target: T1, Vtc1/Vtc3/Vtc4 complex (VTC complex) (Saccharomyces cerevisiae, UniProt P47075+Q02725, P47075:K300A/P47075:R302A/P47075:K320A); experiment: polyP synthesis, TBE-PAGE; type: biochemical; details: activator; 15 mM ATP, 10 mM MgCl2, 1 mM MnCl2, 0.5 mM pyrophosphate, 27 °C; TTM cleft (second site) mutant
T1 construct: full-length subunits co-expressed in Expi293F; Vtc1 C-terminal HA, Vtc3 N-terminal 3xFlag, Vtc4 C-terminal 2xStrep; detergent-purified; 3:1:1 pentamer; with Vacuolar transporter chaperone complex subunit 1
T1 sequence (P47075 1-721 K300A/R302A/K320A): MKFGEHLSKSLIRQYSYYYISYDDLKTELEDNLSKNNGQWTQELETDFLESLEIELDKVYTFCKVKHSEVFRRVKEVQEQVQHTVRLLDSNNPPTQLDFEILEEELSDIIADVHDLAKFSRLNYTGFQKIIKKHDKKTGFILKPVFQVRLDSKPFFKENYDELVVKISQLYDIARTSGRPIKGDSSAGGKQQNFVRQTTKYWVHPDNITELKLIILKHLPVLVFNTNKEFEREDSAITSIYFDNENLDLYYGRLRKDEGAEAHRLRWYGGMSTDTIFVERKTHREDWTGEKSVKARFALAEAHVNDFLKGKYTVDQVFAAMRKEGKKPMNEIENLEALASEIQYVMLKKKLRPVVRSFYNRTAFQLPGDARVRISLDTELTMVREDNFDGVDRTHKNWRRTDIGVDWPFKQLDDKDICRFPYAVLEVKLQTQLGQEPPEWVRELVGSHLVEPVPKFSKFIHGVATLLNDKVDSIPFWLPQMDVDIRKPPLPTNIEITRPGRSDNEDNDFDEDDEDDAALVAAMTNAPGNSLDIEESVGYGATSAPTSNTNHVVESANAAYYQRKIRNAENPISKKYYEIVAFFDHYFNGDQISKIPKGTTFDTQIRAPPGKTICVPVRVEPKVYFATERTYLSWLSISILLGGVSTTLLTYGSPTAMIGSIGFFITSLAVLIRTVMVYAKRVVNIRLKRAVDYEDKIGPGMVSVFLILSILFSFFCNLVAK
T1 sequence (Q02725 1-835): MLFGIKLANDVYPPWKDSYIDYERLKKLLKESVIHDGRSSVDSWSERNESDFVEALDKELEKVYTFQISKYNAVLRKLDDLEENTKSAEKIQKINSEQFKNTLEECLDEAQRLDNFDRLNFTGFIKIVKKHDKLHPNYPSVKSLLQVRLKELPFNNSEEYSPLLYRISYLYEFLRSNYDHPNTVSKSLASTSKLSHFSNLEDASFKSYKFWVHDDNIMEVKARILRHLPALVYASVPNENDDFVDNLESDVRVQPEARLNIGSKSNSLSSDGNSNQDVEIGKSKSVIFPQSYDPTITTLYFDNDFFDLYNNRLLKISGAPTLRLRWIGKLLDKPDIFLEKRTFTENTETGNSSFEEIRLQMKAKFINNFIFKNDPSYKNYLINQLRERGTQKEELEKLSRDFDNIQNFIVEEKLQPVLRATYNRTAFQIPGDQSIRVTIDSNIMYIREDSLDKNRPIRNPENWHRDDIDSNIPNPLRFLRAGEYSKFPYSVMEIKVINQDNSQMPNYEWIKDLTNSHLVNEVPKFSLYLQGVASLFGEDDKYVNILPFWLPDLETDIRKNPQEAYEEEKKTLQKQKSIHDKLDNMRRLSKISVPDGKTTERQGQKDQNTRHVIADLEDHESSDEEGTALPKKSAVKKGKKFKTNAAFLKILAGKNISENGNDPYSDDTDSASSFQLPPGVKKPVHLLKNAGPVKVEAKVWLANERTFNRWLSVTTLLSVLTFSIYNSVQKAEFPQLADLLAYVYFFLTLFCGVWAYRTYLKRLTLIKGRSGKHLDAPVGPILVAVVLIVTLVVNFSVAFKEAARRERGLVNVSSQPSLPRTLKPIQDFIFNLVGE
T1 sequence (P40046 2-129 partner): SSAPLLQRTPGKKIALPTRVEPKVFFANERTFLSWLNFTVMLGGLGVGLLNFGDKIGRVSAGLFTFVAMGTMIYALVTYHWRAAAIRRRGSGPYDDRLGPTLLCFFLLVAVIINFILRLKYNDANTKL

[2] = target: T2, Vtc1/Vtc3/Vtc4 complex (VTC complex) (Saccharomyces cerevisiae, UniProt P47075+Q02725, P47075:Y22F/P47075:K26A/P47075:K133A); experiment: polyP synthesis, TBE-PAGE; type: biochemical; details: activator; 15 mM ATP, 10 mM MgCl2, 1 mM MnCl2, 0.5 mM pyrophosphate, 27 °C, 4 h; SPX PBC mutant
T2 construct: full-length subunits co-expressed in Expi293F; Vtc1 C-terminal HA, Vtc3 N-terminal 3xFlag, Vtc4 C-terminal 2xStrep; detergent-purified; 3:1:1 pentamer; with Vacuolar transporter chaperone complex subunit 1
T2 sequence (P47075 1-721 Y22F/K26A/K133A): T1 sequence (P47075 1-721 K300A/R302A/K320A) with Y22F, K26A, K133A, A300K, A302R, A320K
T2 sequence (Q02725 1-835): T1 sequence (Q02725 1-835)
T2 sequence (P40046 2-129 partner): T1 sequence (P40046 2-129 partner)

O=P(O)(O)O[C@H]1[C@H](OP(=O)(O)O)[C@@H](OP(=O)(O)O)[C@H](OP(=O)(O)O)[C@@H](OP(=O)(O)O)[C@H]1OP(=O)(O)O [InsP6]
polyP synthesis, TBE-PAGE [1]: had little impact on InsP6-stimulated polyP synthesis by VTC complex | polyP synthesis, TBE-PAGE [2]: both reduced InsP6-stimulated polyP synthesis
